Data published in patent US10294202B2, “Pyrrolidinones as herbicides” (FMC Corporation, priority 2013, dated 2019).

Legend:
barnyardgrass [1] = test: Test A pre-/postemergence herbicide test; assay type: in vivo, Echinochloa crus-galli
Procedure, shortened: (§1)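 Both application timings used compounds in a non-phytotoxic solvent plus surfactant. Pre-emergence: soil sprayed directly after seeding into loam/sand. Post-emergence: foliage of 2–10 cm seedlings (1–2 leaves) sprayed. Injury rated ~10 days later, 0–100.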

kochia = test: Test A pre-/postemergence herbicide test; assay type: in vivo, Kochia scoparia
Procedure, shortened: as §1

ragweed = test: Test A pre-/postemergence herbicide test; assay type: in vivo, Ambrosia elatior
Procedure, shortened: as §1

ryegrass, Italian = test: Test A pre-/postemergence herbicide test; assay type: in vivo, Lolium multiflorum
Procedure, shortened: as §1

giant foxtail = test: Test A pre-/postemergence herbicide test; assay type: in vivo, Setaria faberii
Procedure, shortened: as §1

pigweed = test: Test A pre-/postemergence herbicide test; assay type: in vivo, Amaranthus retroflexus
Procedure, shortened: as §1

wheat = test: Test A pre-/postemergence herbicide test; assay type: in vivo, Triticum aestivum; settings: Postemergence
Procedure, shortened: as §1

corn = test: Test A pre-/postemergence herbicide test; assay type: in vivo, Zea mays; settings: Postemergence
Procedure, shortened: as §1

blackgrass = test: Test A postemergence herbicide test; assay type: in vivo, Alopecurus myosuroides
Procedure, shortened: (§2)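 Potted in loam soil/sand blend; postemergence application at 1–2 leaf stage (2–10 cm). Greenhouse ~10 d. Visual injury vs untreated, 0–100 scale; 100 = complete control.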

galium = test: Test A postemergence herbicide test; assay type: in vivo, Galium aparine
Procedure, shortened: as §2

rice = test: Test B flooded paddy test; assay type: in vivo, Oryza sativa; settings: 500 g ai/ha, Flood; scale of 0 to 100 where 0 is no effect and 100 is complete control
Procedure, shortened: (§3)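 Visual ratings from 0, meaning no effect, up to 100, meaning complete control, were made by comparison with untreated controls 13 to 15 days after treatment. Test compounds went straight into floodwater standing 3 cm over the soil of pots holding 2-leaf seedlings.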

sedge, umbrella = test: Test B flooded paddy test; assay type: in vivo, Cyperus difformis; settings: 500 g ai/ha, Flood; scale of 0 to 100 where 0 is no effect and 100 is complete control
Procedure, shortened: as §3

ducksalad = test: Test B flooded paddy test; assay type: in vivo, Heteranthera limosa; settings: 500 g ai/ha, Flood; scale of 0 to 100 where 0 is no effect and 100 is complete control
Procedure, shortened: as §3

barnyardgrass [2] = test: Test B flooded paddy test; assay type: in vivo, Echinochloa crus-galli; settings: 500 g ai/ha, Flood; scale of 0 to 100 where 0 is no effect and 100 is complete control
Procedure, shortened: as §3

[3] = Postemergence, 125 g ai/ha, visual rating on 0 to 100 scale (0 no effect, 100 complete control), approx. 10 days
[4] = Postemergence, 500 g ai/ha, 0 to 100 scale (0 no effect, 100 complete control)
[5] = Preemergence, 125 g ai/ha, 0 to 100 scale where 0 is no effect and 100 is complete control
[6] = preemergence, 500 g ai/ha, 0 to 100 scale, 0 is no effect and 100 is complete control
[7] = Preemergence, 500 g ai/ha, visual rating on 0 to 100 scale (0 no effect, 100 complete control)
[8] = 125 g ai/ha, visual rating on 0 to 100 scale (0 no effect, 100 complete control), approx. 10 days
[9] = 500 g ai/ha, 0 to 100 scale (0 no effect, 100 complete control)

| Compound | Plant response rating, Barnyardgrass (barnyardgrass [1]; [3]) | Plant response rating, Barnyardgrass (barnyardgrass [1]; [4]) | Plant response rating, Barnyardgrass (barnyardgrass [1]; [5]) | Plant response rating, Barnyardgrass (barnyardgrass [1]; [6]) | Plant response rating, Kochia (kochia; [3]) | Plant response rating, Kochia (kochia; [4]) | Plant response rating, Kochia (kochia; [5]) | Plant response rating, Kochia (kochia; [6]) | Plant response rating, Ragweed (ragweed; [3]) | Plant response rating, Ragweed (ragweed; [4]) | Plant response rating, Ragweed (ragweed; [5]) | Plant response rating, Ragweed (ragweed; [6]) | Plant response rating, Ryegrass, Italian (ryegrass, Italian; [3]) | Plant response rating, Ryegrass, Italian (ryegrass, Italian; [4]) | Plant response rating, Ryegrass, Italian (ryegrass, Italian; [5]) | Ryegrass, Italian plant response rating (ryegrass, Italian; [7]) | Plant response rating, Foxtail, Giant (giant foxtail; [3]) | Plant response rating, Foxtail, Giant (giant foxtail; [4]) | Plant response rating, Foxtail, Giant (giant foxtail; [5]) | Plant response rating, Foxtail, Giant (giant foxtail; [6]) | further results |
| --- | --- | --- | --- | --- | --- | --- | --- | --- | --- | --- | --- | --- | --- | --- | --- | --- | --- | --- | --- | --- | --- |
| CSc1cccc(C2CNC(=O)C2C(=O)Nc2ccccc2F)c1 (centres unmarked) [Compound 287] | 50 | 80 | 50 | 80 | 0 | 0 | 0 | 0 | 0 | 0 | 0 | 0 | 0 | 0 | 0 | 0 | 0 | 0 | 50 | 80 | Plant response rating, Pigweed (pigweed; [3]): 0; Plant response rating, Pigweed (pigweed; [4]): 0; Plant response rating, Pigweed (pigweed; [5]): 0; Plant response rating, Pigweed (pigweed; [6]): 0; Plant response rating, Wheat (wheat; [8]): 0; Plant response rating, Wheat (wheat; [9]): 0; Plant response rating, Corn (corn; [8]): 0; Plant response rating, Corn (corn; [9]): 0; Plant response rating, Blackgrass (blackgrass; [8]): 0; Plant response rating, Blackgrass (blackgrass; [9]): 0; Plant response rating, Galium (galium; [8]): 0; Plant response rating, Galium (galium; [9]): 0; Plant response rating, Rice (rice): 0; Plant response rating, Sedge, Umbrella (sedge, umbrella): 0; Plant response rating, Ducksalad (ducksalad): 75; Plant response rating, Barnyardgrass (barnyardgrass [2]): 30 |
| CSc1cccc(C2CNC(=O)C2C(=O)Nc2cccc(F)c2F)c1 (centres unmarked) [Compound 289] | 50 | 70 | 50 | 80 | 0 | 0 | 0 | 0 | 0 | 0 | 0 | 0 | 0 | 0 | 0 | 0 | 30 | 60 | 60 | 90 | Plant response rating, Pigweed (pigweed; [3]): 0; Plant response rating, Pigweed (pigweed; [4]): 0; Plant response rating, Pigweed (pigweed; [6]): 0; Plant response rating, Wheat (wheat; [8]): 0; Plant response rating, Wheat (wheat; [9]): 0; Plant response rating, Corn (corn; [8]): 0; Plant response rating, Corn (corn; [9]): 0; Plant response rating, Blackgrass (blackgrass; [8]): 0; Plant response rating, Blackgrass (blackgrass; [9]): 0; Plant response rating, Galium (galium; [8]): 0; Plant response rating, Galium (galium; [9]): 0; Plant response rating, Rice (rice): 20; Plant response rating, Sedge, Umbrella (sedge, umbrella): 0; Plant response rating, Ducksalad (ducksalad): 90; Plant response rating, Barnyardgrass (barnyardgrass [2]): 30 |
| CSc1cccc(C2CNC(=O)C2C(=O)Nc2ccc(F)c(F)c2F)c1 (centres unmarked) [Compound 290] | 50 | 80 | 60 | 80 | 0 | 0 | 0 | 0 | 0 | 0 | 0 | 0 | 0 | 0 | 0 | 0 | 30 | 60 | 60 | 80 | Plant response rating, Pigweed (pigweed; [3]): 0; Plant response rating, Pigweed (pigweed; [4]): 10; Plant response rating, Pigweed (pigweed; [5]): 0; Plant response rating, Pigweed (pigweed; [6]): 0; Plant response rating, Wheat (wheat; [8]): 0; Plant response rating, Wheat (wheat; [9]): 0; Plant response rating, Corn (corn; [8]): 0; Plant response rating, Corn (corn; [9]): 0; Plant response rating, Blackgrass (blackgrass; [8]): 0; Plant response rating, Blackgrass (blackgrass; [9]): 0; Plant response rating, Galium (galium; [8]): 0; Plant response rating, Galium (galium; [9]): 0; Plant response rating, Rice (rice): 0; Plant response rating, Sedge, Umbrella (sedge, umbrella): 0; Plant response rating, Ducksalad (ducksalad): 75; Plant response rating, Barnyardgrass (barnyardgrass [2]): 40 |
| CSc1cccc(C2CNC(=O)C2C(=O)Nc2ccccc2Cl)c1 (centres unmarked) [Compound 291] | 40 | 60 | 20 | 60 | 0 | 0 | 20 | 20 | 0 | 0 | 0 | 0 | 0 | 0 | 0 | 30 | 20 | 50 | 20 | 80 | Plant response rating, Pigweed (pigweed; [3]): 0; Plant response rating, Pigweed (pigweed; [4]): 0; Plant response rating, Pigweed (pigweed; [5]): 0; Plant response rating, Pigweed (pigweed; [6]): 0; Plant response rating, Wheat (wheat; [8]): 0; Plant response rating, Wheat (wheat; [9]): 0; Plant response rating, Corn (corn; [8]): 0; Plant response rating, Corn (corn; [9]): 0; Plant response rating, Blackgrass (blackgrass; [8]): 0; Plant response rating, Blackgrass (blackgrass; [9]): 0; Plant response rating, Galium (galium; [8]): 20; Plant response rating, Galium (galium; [9]): 0; Plant response rating, Rice (rice): 20; Plant response rating, Sedge, Umbrella (sedge, umbrella): 0; Plant response rating, Ducksalad (ducksalad): 0; Plant response rating, Barnyardgrass (barnyardgrass [2]): 0 |
